The values below come from ChEMBL document CHEMBL1150443, “Synthesis and ion-binding properties of an immobilized bis-cysteine peptide” (Bioorg Med Chem Lett, 1992).

Assay [1] is described as follows: Binding constant of the ion pair ( lithium picrate salt) to the peptide-matrix was calculated from the spectrophotometric determination of the free Li+ picrate salt after equilibration with the immobilized peptide in trifluoroethanol; NA=No affinity.
Assay [2] in a line: Binding constant of the ion pair ( potassium picrate salt) to the peptide-matrix was calculated from the spectrophotometric determination of the free K+ picrate salt after equilibration with the immobilized peptide in trifluoroethanol; NA=No affinity.
A short description of assay [3]: Binding constant of the ion pair ( sodium picrate salt) to the peptide-matrix was calculated from the spectrophotometric determination of the free Na+ picrate salt after equilibration with the immobilized peptide in trifluoroethanol.
Assay [4] is described as follows: Binding constant of the ion pair ( lithium picrate salt) to the peptide-matrix was calculated from the spectrophotometric determination of the free Na+ picrate salt after equilibration with the immobilized peptide in trifluoroethanol.
The nature of assay [5]: Binding constant of the ion pair ( lithium picrate salt) to the peptide-matrix was calculated from the spectrophotometric determination of the free […] picrate salt after equilibration with the immobilized peptide in trifluoroethanol; NA=No affinity.
A short description of assay [6]: Binding constant of the ion pair ( lithium picrate salt) to the peptide-matrix was calculated from the spectrophotometric determination of the free Li+ picrate salt after equilibration with the immobilized peptide in trifluoroethanol.

Active and inactive are the calls of the source. The calls are words filed in the database; no cut-off is given here.

Take `CC(=O)N[C@@H]1CSSC[C@@H](NC(C)=O)C(=O)N2CCC[C@@H]2C(=O)N[C@H](C(C)C)C(=O)N[C@H](C(=O)O)CSSC[C@@H](C(N)=O)NC(=O)[C@@H](C(C)C)NC(=O)[C@H]2CCCN2C1=O`: the outcome in assay [1] and in assay [2] was inactive. Further, the KNa in assay [3] was 5200 M⁻¹.
Turning to `CC(=O)N[C@@H]1CSSC[C@@H](NC(C)=O)C(=O)N2CCC[C@@H]2C(=O)N[C@H](C(C)C)C(=O)N[C@H](C(N)=O)CSSC[C@@H](C(N)=O)NC(=O)[C@@H](C(C)C)NC(=O)[C@H]2CCCN2C1=O`, the Log K was 2.11 in assay [4] and 2.6 in assay [6]. The result in assay [5] was inactive.
